From patent publication US11291656B2, “Pramipexole transdermal delivery system and uses thereof” (TRANSWELL BIOTECH CO., LTD., priority 2016, dated 2022)
Values after ≈ are worked out from the molar mass of the structure shown. Read-outs that look alike come from different tables or passages of the source.

Tests used:
[1] = physchem
Description: Numerous permeation enhancers were evaluated to identify suitable permeation enhancers, including permeation enhancers listed in Table 4 below that lists solubility of pramipexole in the respective permeation enhancers.

- solubility ([1]; Brij 30, organic solvent or mixture): 111 mg/mL (≈ 526 mM)
- solubility ([1]; Transcutal P, organic solvent or mixture): 122 mg/mL (≈ 577 mM)
- solubility ([1]; Tween 80, organic solvent or mixture): 86.1 mg/mL (≈ 407 mM)
- solubility ([1]; ethyl acetate, organic solvent or mixture): 34.3 mg/mL (≈ 162 mM)
- solubility ([1]; isopropyl alcohol, organic solvent or mixture): 107 mg/mL (≈ 505 mM)
- solubility ([1]; limonene, organic solvent or mixture): 5.34 mg/mL (≈ 25.3 mM)
- solubility ([1]; methanol, organic solvent or mixture): 100 mg/mL (≈ 474 mM)
- solubility ([1]; methyl laurate, oil or lipid): 7.07 mg/mL (≈ 33.5 mM)
- solubility ([1]; octanol, organic solvent or mixture): 113 mg/mL (≈ 535 mM)
- solubility ([1]; oleic acid, oil or lipid): 59 mg/mL (≈ 279 mM)
- solubility ([1]; oleyl alcohol, oil or lipid): 113 mg/mL (≈ 535 mM)
- solubility ([1]; propylene glycol (PG), organic solvent or mixture): 55.6 mg/mL (≈ 263 mM)
- API solubility (in adhesive DURO-TAK 87-2054 (acrylate-vinylacetate, —COOH)): adequate solubility
- API solubility (in adhesive DURO-TAK 87-2054 (acrylate-vinylacetate, —COOH), listed as API): 10%
- API solubility (in adhesive DURO-TAK 87-2510 (Acrylic, —OH)): adequate solubility
- API solubility (in adhesive DURO-TAK 87-2510 (Acrylic, —OH), listed as API): 5%
- API solubility (in adhesive DURO-TAK 87-2979 (acrylate-vinylacetate, —COOOH/—OH)): adequate solubility
- API solubility (in adhesive DURO-TAK 87-2979 (acrylate-vinylacetate, —COOOH/—OH), listed as API): 10%
- API solubility (in adhesive DURO-TAK 87-4287 (acrylate-vinylacetate, —OH)): adequate solubility
- API solubility (in adhesive DURO-TAK 87-4287 (acrylate-vinylacetate, —OH), listed as API): 8%
SMILES: CCCN[C@H]1CCc2nc(N)sc2C1 [Pramipexole]
